Results on 5 compounds are retold here after patent publication US7115633B2, “Benzosuberonylpiperdine compounds as analgesics” (GlaxoSmithKline S.p.A., priority 2000, dated 2006).

SMILES strings stand for the structures.

Usually melting point stands for the temperature of the solid-liquid transition.

On to `Cc1cccc(C2CCN(C[C@@H]3CCc4c(C)cccc4[C@H](O)C3)CC2)c1.Cl` (racemic), for which the melting point was > 250 °C.
As to `Cc1cccc(C2CCN(C[C@H]3CCc4c(Br)cccc4[C@H](O)C3)CC2)c1.Cl` (racemic), the melting point was > 250 °C.
As for `Cc1ccccc1C1CCN(CC2CCc3c(F)cccc3C(O)C2)CC1.Cl` (racemic), the melting point was in the range of 231 to 233 °C.
The compound `Cl.O[C@@H]1C[C@H](CN2CCC(c3ccccc3Cl)CC2)CCc2c(F)cccc21` (racemic) returned a melting point of 245 to 247 °C.
With `Cc1cccc2c1CC[C@@H](CN1CCC(c3ccccc3Cl)CC1)C[C@H]2O.Cl` (racemic), the melting point was > 250 °C.
